According to article PMC8615111, “Phenolic Thiazoles with Antioxidant and Antiradical Activity. Synthesis, In Vitro Evaluation, Toxicity, Electrochemical Behavior, Quantum Studies and Antimicrobial Screening” (Antioxidants, 2021):
Read-outs that look alike come from different tables or passages of the source. Marks after values point to notes of the source that are not given here.

What was measured:
[1] = Cyclic voltammetry of the compounds on graphite-based SPE; assay type: physicochemical; conditions: CV, 0.1 M HClO4, graphite-based SPE
Experimental: The evaluated compounds’ stock solutions used were prepared at a concentration of 5 mM. To test their redox properties, dilutions of 0.5 mM and 2 mM were prepared in 0.1 M HClO4 electrolyte (pH = 1.2). Screen-printed electrodes (SPEs; Metrohm DropSens, Oviedo, Spain) (planar electrodes) with graphite and gold working electrodes were used. Cyclic voltammetry (CV) and differential pulse voltammetry (DPV) were the electrochemical methods applied. The experimental conditions for each test are mentioned near the corresponding data (Appendix A).
In Figure 2, the cyclic voltammograms (CVs) for each of the compounds considered in this study, compared individually with the voltammogram obtained in the electrolyte (0.1 M HClO4), are presented. Thus, the oxidation/reduction peaks corresponding to the electrochemical transformations suffered by each compound can be observed in the potential range considered, in an acidic environment (low pH). From Figure 3, where the voltammograms of all eight compounds were presented together, a similarity is observed between 8a and 8b, and among the other compounds, whereas 5a and 5b can be noted as having the highest oxidation signals.

[2] = Scavenging of hydrogen peroxide by cyclic voltammetry on Au SPE; conditions: 0.5 mM H2O2, 0.5 mM compound, 0.1 M KCl
Experimental: The antioxidant properties were evaluated in terms of their activity against some free radicals, and other compounds reported in the literature, relevant for this purpose, such as: • ferric ions (Fe^3+)—used to test the reduction of the antioxidant character of the compounds; • DPPH˙ free radical– used to test the scavenging effect of the compounds on this radical; • hydrogen peroxide (H2O2)—used to test the scavenging effect of the synthesized molecules on this compound; • 2,2,6,6-tetramethylpiperidinyl-1-oxy (TEMPO)—used to test the scavenging effect of the synthesized molecules on this compound.
The anodic oxidation of H2O2 was used to determine the antioxidant character of compounds in different samples. Gold-based SPEs purchased from Dropsens were used as working electrode for monitoring the change in the oxidation peak of hydrogen peroxide due to the addition of different amounts of the novel compounds. The oxidation signal of H2O2 obtained at the sweep of the potential in the range from −0.5 to 1.2 V on the gold electrode can be observed in Figure A6. The scavenging abilities of compounds from 1 to 8 on […] are compared in this figure. The addition of an antioxidant, by its ability to consume H2O2, determines the decrease of anodic peak characteristic for H2O2. […]

HaCaT cells = HaCaT cells integrity, acridine orange staining; assay type: cell-based, human; conditions: treatment at IC50 concentration for 24 h
Experimental: The cells were left to attach to 10 mm Ø glass slides for 24 h, at a confluence of 3 × 10^4 cells/glass slide. The slides were incubated for 10 min in acridine orange 1 µM in PBS 0.01M, and then the slides were investigated with an epifluorescence microscope Optika 510LD1 with 5 MP CCD cameras at 525 nm (green filter).

[3] = design: method as in doi:10.1016/j.molstruc.2021.131278; conditions: cited from earlier work
[4] = design: method as in doi:10.1016/j.molstruc.2021.131278; conditions: cited from earlier work; remark: listed apart in the source
[5] = design: method as in doi:10.1016/j.molstruc.2021.131278; conditions: cited from earlier work; remark: listed apart in the source

Row | Structure (SMILES) | Eox (V) ([1]; 2nd oxidation peak) | Iox (μA) ([1]; 2nd oxidation peak) | Ered (V) ([1]; 2nd reduction peak) | Ired (μA) ([1]; 2nd reduction peak) | Eox (V) ([1]; 3rd oxidation peak) | Iox (μA) ([1]; 3rd oxidation peak) | Ered (V) ([1]; 3rd reduction peak) | Ired (μA) ([1]; 3rd reduction peak) | Eox (V) ([1]; 1st oxidation peak) | Iox (μA) ([1]; 1st oxidation peak) | Ired (μA) ([1]; 1st reduction peak) | further results
1 | Cc1csc(N/N=C/c2ccc(O)cc2O)n1.Cl [Compound 5b, (E)-2-(2,4-dihydroxybenzylidene)-1-(4-methylthiazol-2-yl)hydrazin-1-ium chloride] | 0.425 | 69.35 | 0.085 | −0.68 | 0.632 | 5.87 | 0.286 | −2.86 | – | – | – | –
2 | C/C(=N\Nc1nc(-c2ccc(O)c(O)c2)cs1)c1ccc(O)cc1O.Cl [Compound 8a, (E)-2-(1-(2,4-dihydroxyphenyl)ethylidene)-1-(4-(3,4-dihydroxyphenyl)thiazol-2-yl)hydrazin-1-ium chloride] | 0.386 | 37.08 | 0.101 | −4.79 | 0.520 | 4.87 | 0.335 | −38.91 | 0.174 | 21.51 | – | scavenging effect on H2O2 [2]: highest scavenging effect; morphological effect on HaCaT cells, acridine orange staining (HaCaT cells): induced nuclear fragmentation
3 | C/C(=N\Nc1nc(C)cs1)c1ccc(O)cc1O [Compound 5a, Dihydroxy-Phenyl-Thiazol-Hydrazinium chloride] | 0.384 | 50.85 | – | – | 0.632 | 19.21 | 0.256 | −2.17 | – | – | −6.62 | Chelation Capacity (%), ferrous ions ([3]; 50 µg/mL): 0.27 * %; Chelation Capacity (%), ferrous ions ([3]; 100 µg/mL): 5.06 * %; Ered (V) ([1]; 1st reduction peak): −0.075 V; % of ABTS˙^+ Scavenged ([4]; 0.5 µg/mL): 32.42 * %; % of ABTS˙^+ Scavenged ([4]; 0.75 µg/mL): 37.23 * %; % of ABTS˙^+ Scavenged ([4]; 1 µg/mL): 41.36 * %; % of ABTS˙^+ Scavenged ([4]; 1.5 µg/mL): 49.77 * %; % of ABTS˙^+ Scavenged ([4]; 2.5 µg/mL): 70.60 * %; IC50 ([4]; ABTS˙^+ scavenging): 1.45 * µg/mL; % of DPPH˙ Scavenged ([5]; 1 µg/mL): 13.11 * %; % of DPPH˙ Scavenged ([5]; 1.5 µg/mL): 20.68 * %; % of DPPH˙ Scavenged ([5]; 2 µg/mL): 28.87 * %; % of DPPH˙ Scavenged ([5]; 3 µg/mL): 48.22 * %; % of DPPH˙ Scavenged ([5]; 5 µg/mL): 79.92 * %; IC50 ([5]; DPPH˙ scavenging): 3.20 * µg/mL
4 | Br.C/C(=N\Nc1nc(-c2ccc(O)c(C(N)=O)c2)cs1)c1ccc(O)cc1O [Compound 7a, (E)-1-(4-(3-carbamoyl-4-hydroxyphenyl)thiazol-2-yl)-2-(1-(2,4-dihydroxyphenyl)ethylidene)hydrazin-1-ium bromide] | 0.374 | 2.06 | 0.205 | −4.65 | 0.561 | 2.69 | – | – | 0.269 | 14.75 | – | morphological effect on HaCaT cells, acridine orange staining (HaCaT cells): induced a necroptotic aspect of the cells
5 | Br.NC(=O)c1cc(-c2csc(N/N=C/c3ccc(O)cc3O)n2)ccc1O [Compound 7b, (E)-1-(4-(3-carbamoyl-4-hydroxyphenyl)thiazol-2-yl)-2-(2,4-dihydroxybenzylidene) hydrazin-1-ium bromide] | 0.412 | 15.78 | – | 0.078 | 0.543 | 6.385 | – | 0.201 | 0.267 | 13.22 | −0.119 | –
6 | Br.Oc1ccc(/C=N/Nc2nc(-c3ccccc3)cs2)c(O)c1 [Compound 6b, (E)-2-(2,4-dihydroxybenzylidene)-1-(4-phenylthiazol-2-yl)hydrazin-1-ium bromide] | 0.467 | 44.99 | 0.070 | −1.49 | – | – | 0.401 | −5.91 | 0.296 | 5.28 | −2.22 | Ered (V) ([1]; 1st reduction peak): −0.08 V
7 | Cl.Oc1ccc(/C=N/Nc2nc(-c3ccc(O)c(O)c3)cs2)c(O)c1 [Compound 8b, (E)-2-(2,4-dihydroxybenzylidene)-1-(4-(3,4-dihydroxyphenyl)thiazol-2-yl)hydrazin-1-ium chloride] | 0.508 | 40.99 | – | – | – | – | 0.325 | −40.37 | 0.166 | 2.19 | – | –
8 | Br.C/C(=N\Nc1nc(-c2ccccc2)cs1)c1ccc(O)cc1O [Compound 6a, (E)-2-(1-(2,4-dihydroxyphenyl)ethylidene)-1-(4-phenylthiazol-2-yl)hydrazin-1-ium bromide] | 0.418 | 22.48 | 0.181 | −6.84 | 0.621 | 15.03 | 0.379 | −1.19 | 0.298 | 10.73 | – | –
